Experiment [1] deals with iPSCs edited with a construct comprising a degron fused to GAPDH as well as GFP (GFP-positive). The experiment in a line: Depletion of GFP-positive gene-edited iPSCs in a mixture with unedited cells after POM. The note with it: 3 μM POM for 6d; heterogenous mixture; FIG. 7G construct. It counts as cell-based. On the procedure: (§1) Functionality of the kill switch was tested in iPSCs using the targeting construct depicted in FIG. 7G, which comprises a linker, a degron sequence, an IRES, and a GFP transgene sequence flanked by GAPDH homology arms. On the day of Nucleofection, iPSCs were harvested and resuspended in Lonza P3 primary cell nucleofection buffer. Ribonucleoproteins (RNPs) were complexed with sgRNAs using 1:2 ratio of protein:sgRNA (IDT). Nucleofection of complexed RNP together with a targeting construct into resuspended iPSCs was accomplished using LONZA 4D Nucleofector. The Nucleofected cells were then plated and assessed for targeting events.
(§2) A heterogenous mixture of unedited cells (GFP-negative) and cells edited with a construct depicted in FIG. 7G, comprising a degron fused to GAPDH as well as GFP (GFP-positive) were treated with 3 μM pomalidomide (POM) for 6d or fed with complete medium without POM (untreated).

The test system of experiment [2] is DA neurons derived from unedited parental iPSCs. The experiment in a line: Annexin V Incucyte cell death of DA neurons derived from unedited parental iPSCs. It counts as cell-based. On the procedure: (§3) In order to determine the applicability of the degron-comprising targeting constructs to differentiated cells, unedited parental iPSCs and gene-edited iPSC clones B and C were differentiated into dopaminergic (DA) neurons as depicted in FIG. 13. The differentiation protocol was adapted from Kriks et al., 2011, Nature 480 (7378): 547-551 and U.S. Pat. No. 10,711,243, which are hereby incorporated by reference in their entireties. Cell death was assessed post-thaw after cells were plated down in the presence and absence of various concentrations of POM. Annexin V dye was used to quantify cell death in an Incucyte imager over a period of 5 days.
(§4) Cells were differentiated from iPSCs into DA neurons using the same protocol as depicted in FIG. 13. DA neurons were plated and stained with Annexin V dye and cell death was measured using an Incucyte Imager over a period of 144 hours.

Experiment [3] concerns iPSC clone bi-allelically modified with a degron fused to GAPDH and IRES-GFP. The experiment in a line: Incucyte live cells/well of a bi-allelically modified iPSC clone under POM. It counts as cell-based. The note with it: 1 μM POM. An excerpt: The percentage of live cells/well was quantified at several timepoints using the Incucyte software and normalized for the number of live cells/well at the first image timepoint.

The test system of experiment [4] is dopaminergic (DA) neurons differentiated from gene-edited iPSC clones (degron linked to GAPDH). The experiment in a line: Annexin V Incucyte cell death of DA neurons differentiated from gene-edited iPSCs. The experiment is classed as cell-based. On the procedure:
as §3, §4

Experiment [5] relates to myeloid progenitor (MP) cells differentiated from unedited parental iPSCs. The experiment in a line: AO/PI Incucyte cell death of myeloid progenitor cells from unedited parental iPSCs. The experiment is classed as cell-based. The conditions noted are these: 1 μM POM; 108 hours. An excerpt:
(§5) To expand the applicability of the degron-comprising constructs to additional differentiated cell types, unedited parental iPSCs and biallelically gene-edited iPSC clones A, B, and C comprising targeting construct as depicted in FIG. 7G were differentiated into myeloid progenitor (MP) cells as depicted in FIG. 17. The differentiation protocol was adapted from Douvaras et al., 2017 Jun. 6; 8 (6): 1516-1524 and PCT publication nos. WO 2023/150089 A1 and WO 2017/152081 A1, which are hereby incorporated by reference in their entireties. Cell death was assessed post-thaw after MP cells were plated down in the presence and absence of POM. Acridine Orange/Propidium Iodine (AO/PI) dye was used to quantify cell death in an Incucyte Imager over a period of 108 hours.

Experiment [6] concerns iPSCs transfected with degron or superdegron GAPDH targeting constructs. In words: Linker length: amplicon depletion after POM relative to untreated cells. It counts as cell-based. The conditions noted are these: 3 μM POM; construct with 3 aa linker and degron. An excerpt:
(§6) Two sets of targeting constructs were generated as described in Section 8.1. The first set of targeting constructs were designed to comprise a linker, a degron or superdegron sequence, an IRES sequence, and a GFP transgene sequence flanked by GAPDH homology arms as depicted in FIGS. 7G-7J, wherein the linker lengths were 3 aa (linker 1, GGS), 15 aa (linker 2, SEQ ID NO:23), 27 aa (linker 3, SEQ ID NO:103) and 10 aa (linker 4, SEQ ID NO:15). The second set of targeting constructs were designed to comprise a linker and a degron or superdegron sequence flanked by GAPDH homology arms as depicted in FIGS. 7A-7D. For both sets, the homology arms were designed to enable integration of the construct in the endogenous GAPDH locus, immediately 5′ of the GAPDH endogenous STOP codon. iPSCs were transfected with each construct individually.
Next, the iPSCs transfected with the second set of targeting constructs were evaluated, wherein amplicon depletion was assessed following POM treatment relative to untreated cells. […] Taken together, targeting construct linker length and degron type might be key factors to trigger cell death in gene-edited cells.

The test system of experiment [7] is unedited parental cells (iPSCs). The experiment in a line: Growth of unedited parental iPSCs under POM. The experiment is classed as cell-based. The note with it: 0.5 μM POM for 5 days. On the procedure:
The same gene-edited iPSC clones in Example 4 were treated with 0.5 μM POM for 5 days to determine if there were any differences between the survival rates.

Experiment [8] deals with unedited cells (GFP-negative) iPSCs. The experiment in a line: Effect of POM on unedited cells in the mixture with gene-edited iPSCs. It counts as cell-based. The note with it: 3 μM POM for 6d; heterogenous mixture. On the procedure: as §1, §2
For experiment [9], the system named is myeloid progenitor (MP) cells differentiated from biallelically gene-edited iPSC clones A, B, and C. In words: AO/PI Incucyte cell death of myeloid progenitor cells differentiated from gene-edited iPSCs. It counts as cell-based. The note with it: 1 μM POM, 108 hours.
Text: as §5

Experiment [10] relates to GAPDH expression. The experiment in a line: qPCR of GAPDH expression in gene-edited iPSC clones. The experiment is classed as cell-based. The conditions noted are these: 3 μM POM for up to 3 days; three degron clones and one superdegron clone.
Experiment [11] relates to gene-edited iPSC clones (degron or superdegron linked to GAPDH). It counts as cell-based.
Experiment [12] relates to pool of iPSCs transfected with degron or superdegron GAPDH IRES-GFP targeting constructs. In words: Linker length: flow cytometry of GFP signal depletion in transfected iPSC pools. The experiment is classed as cell-based. The conditions noted are these: 3 μM POM for 4 days.
Text: as §6
A pool of iPSCs transfected with the first set of targeting constructs, potentially comprising both mono-allelically and bi-allelically gene edited iPSCs, were evaluated using flow cytometry, wherein the depletion of GFP signal was assessed following treatment with 3 μM POM for 4 days. Among gene-edited iPSCs, those that were transfected with the superdegron-comprising targeting construct had the lowest percentage of GFP-positive cells, whereas approximately ⅓ to ½ of […] cells transfected with one of the degron-comprising targeting constructs were GFP-positive.

Experiment [13] deals with degron-fused GAPDH protein (Homo sapiens, UniProt P04406+Q96SW2). The conditions noted are these: one day treatment with 3 μM POM; degron and superdegron iPSC clones. On the procedure:
To determine whether gene-editing of iPSCs with a targeting construct, wherein the homology arms of which enable its integration in the endogenous GAPDH locus, affects the expression of GAPDH, three clones bi-allelically modified with a targeting construct comprising a 3 aa linker, GGS and a degron (as depicted in FIG. 7G) and one clone bi-allelically modified with superdegron-comprising targeting construct (as depicted in FIG. 7J) were treated with 3 μM POM for up to 3 days.

Chain of degron-fused GAPDH protein (P04406 other isoform, or with tags, fused parts or gaps): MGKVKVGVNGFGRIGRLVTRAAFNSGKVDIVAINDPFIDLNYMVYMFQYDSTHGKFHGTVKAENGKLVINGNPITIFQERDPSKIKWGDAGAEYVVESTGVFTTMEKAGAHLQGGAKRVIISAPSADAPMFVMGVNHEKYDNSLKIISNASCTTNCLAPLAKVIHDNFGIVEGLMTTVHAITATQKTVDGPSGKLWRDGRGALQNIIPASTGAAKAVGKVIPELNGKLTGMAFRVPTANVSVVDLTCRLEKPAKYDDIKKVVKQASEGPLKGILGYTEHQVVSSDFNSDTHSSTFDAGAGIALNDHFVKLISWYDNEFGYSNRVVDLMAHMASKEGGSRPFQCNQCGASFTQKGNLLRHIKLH
Chain of degron-fused GAPDH protein (Q96SW2 whole entry, the tested form may be a part): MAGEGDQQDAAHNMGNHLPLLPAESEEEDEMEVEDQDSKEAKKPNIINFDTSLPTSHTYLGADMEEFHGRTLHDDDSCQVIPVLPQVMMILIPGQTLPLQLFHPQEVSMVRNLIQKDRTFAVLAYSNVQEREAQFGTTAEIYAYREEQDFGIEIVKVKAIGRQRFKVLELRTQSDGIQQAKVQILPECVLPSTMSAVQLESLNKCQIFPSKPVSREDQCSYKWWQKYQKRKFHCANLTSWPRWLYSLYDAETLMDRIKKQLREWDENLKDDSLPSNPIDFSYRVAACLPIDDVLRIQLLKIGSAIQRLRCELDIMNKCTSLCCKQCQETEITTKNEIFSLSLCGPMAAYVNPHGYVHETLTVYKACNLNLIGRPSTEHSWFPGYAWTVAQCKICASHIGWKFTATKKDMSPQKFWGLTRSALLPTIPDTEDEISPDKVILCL
Chain of degron-fused GAPDH protein (Q16531 whole entry, further chain, the tested form may be a part): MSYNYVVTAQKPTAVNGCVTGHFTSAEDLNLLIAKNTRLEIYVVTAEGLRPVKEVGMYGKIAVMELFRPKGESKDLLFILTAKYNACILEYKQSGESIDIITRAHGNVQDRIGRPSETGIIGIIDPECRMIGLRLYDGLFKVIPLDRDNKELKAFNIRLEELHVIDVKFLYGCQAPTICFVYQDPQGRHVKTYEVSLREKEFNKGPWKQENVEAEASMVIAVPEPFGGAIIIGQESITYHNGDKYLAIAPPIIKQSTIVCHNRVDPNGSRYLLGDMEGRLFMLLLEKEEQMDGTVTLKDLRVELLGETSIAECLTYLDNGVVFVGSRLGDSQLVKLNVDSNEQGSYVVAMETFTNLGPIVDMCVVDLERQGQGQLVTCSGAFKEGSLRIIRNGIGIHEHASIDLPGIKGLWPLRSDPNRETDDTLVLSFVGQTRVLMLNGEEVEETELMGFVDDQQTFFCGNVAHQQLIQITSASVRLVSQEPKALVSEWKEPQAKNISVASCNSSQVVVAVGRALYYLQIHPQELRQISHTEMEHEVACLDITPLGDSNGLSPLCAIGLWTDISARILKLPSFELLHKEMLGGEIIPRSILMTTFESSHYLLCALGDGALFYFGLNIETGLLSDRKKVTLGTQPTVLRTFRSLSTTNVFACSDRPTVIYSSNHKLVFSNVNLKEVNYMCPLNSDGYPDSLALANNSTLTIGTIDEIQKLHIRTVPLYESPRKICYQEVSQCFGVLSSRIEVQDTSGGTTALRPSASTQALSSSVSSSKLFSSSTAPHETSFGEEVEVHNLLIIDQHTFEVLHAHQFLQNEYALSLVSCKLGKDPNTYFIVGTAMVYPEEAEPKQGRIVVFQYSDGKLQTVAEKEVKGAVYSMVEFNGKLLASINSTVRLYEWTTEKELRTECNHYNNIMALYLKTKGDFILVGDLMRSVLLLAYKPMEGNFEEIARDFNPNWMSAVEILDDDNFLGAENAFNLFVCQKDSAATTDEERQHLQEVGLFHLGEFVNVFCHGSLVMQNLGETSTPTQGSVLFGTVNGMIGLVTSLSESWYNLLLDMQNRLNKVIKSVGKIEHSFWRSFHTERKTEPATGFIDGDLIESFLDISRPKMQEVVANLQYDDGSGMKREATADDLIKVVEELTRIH

On to `Nc1cccc2c1C(=O)N(C1CCC(=O)NC1=O)C2=O` (stereo not shown) [POM, pomalidomide], for which, in [1], the “effect on the population of edited GFP-positive cells” value is listed as “depleted the population of edited GFP-positive cells”. Further, the “cell death at any POM concentration tested” value in [2] (0.01 μM to 100 μM POM, 144 hours) is “No differences in cell death”. For the same molecule, the “neuronal death with vs without POM” value in experiment [2] (various POM concentrations, 5 days) is given as “No differences in neuronal death”. Besides, the “elimination of gene edited cells” value in [3] (92 hours after addition) was “completely eliminated”. Besides, the “time after addition of POM at which cell death rate surpassed proliferation rate” value in experiment [3] (bi-allelic FIG. 7G clone, Incucyte) is recorded as “around 24 hours”. In experiment [4] (Clone A or Clone C, by 144 hours, range 0.01 μM to 100 μM), the “POM concentration giving nearly complete cell death” value stood at 0.1 µM. For the same molecule, the “POM concentration giving complete killing (lowest concentration evaluated)” value in experiment [4] (DA neurons derived from clone B, 5-day treatment) stood at 10 nM. Also, the “death of neurons at all POM concentrations evaluated” value in [4] (clone B and clone C, by day 5, 0.13 μM-1 μM POM) is recorded as “complete death of all neurons”. The “cell death of unedited parental MP line” value in experiment [5] is “no increase in cell death”. For the same molecule, the “amplicon depletion relative to untreated cells” value in experiment [6] is on record as “associated with amplicon depletion”. Further, in [7], the “growth of unedited parental cells” value is “did not affect the growth of unedited parental cells”. The “effect on unedited cells” value in [8] is reported as “did not affect unedited cells”. Besides, the “cell death of gene-edited MP clones” value in [9] is on record as “died in response to POM”. Moreover, in [10], the “GAPDH expression by qPCR, untreated vs POM-treated gene-edited cells” value was “No large differences in GAPDH expression”. The “killing of gene-edited iPSCs” value in [11] (0.5 μM POM for 5 days, degron and superdegron clones of Example 4) is listed as “complete killing of all gene-edited iPSCs”. In [11] (degron construct, monitored 5 days, range 0.03125 μM to 10 μM), the “POM concentration sufficient to achieve complete killing” value came out at 0.5 µM. In addition, the “POM concentration able to trigger apoptosis” value in [11] (degron construct, monitored 5 days, range 0.03125 μM to 10 μM, data not shown) came out at 0.25 µM. Also, the “lowest POM concentration evaluated, associated with apoptosis of all cells” value in experiment [11] (superdegron construct, monitored 5 days) amounted to 0.03125 µM. Moreover, the “depletion of GFP-positive cells” value is given as “depleted GFP-positive cells” in [12] (degron construct with the shortest linker (3 aa, GGS)); “only if they were transfected with the degron-comprising targeting construct with the shortest linker or the superdegron-comprising targeting construct” in experiment [12] (degron constructs with 15 aa and 27 aa linkers (no depletion implied)); “depleted GFP-positive cells” in experiment [12] (superdegron construct (10 aa linker)). Also, the “GAPDH protein by western blot” value in [13] was “completely depleted”.

The values above are taken from patent publication US20260265703A1, “DEGRON FUSION PROTEINS AND METHODS OF PRODUCTION AND USE THEREOF” (BlueRock Therapeutics LP, priority 2023, published 2026).
